The results in this text go back to patent publication US10377753B2, “Substituted 4-azaindoles and their use as GluN2B receptor modulators” (Janssen Pharmaceutica NV, priority 2015, dated 2019).

Chain of cloned human NR1/NR2B ion channels (Q13224 27-1484, other chains not shown): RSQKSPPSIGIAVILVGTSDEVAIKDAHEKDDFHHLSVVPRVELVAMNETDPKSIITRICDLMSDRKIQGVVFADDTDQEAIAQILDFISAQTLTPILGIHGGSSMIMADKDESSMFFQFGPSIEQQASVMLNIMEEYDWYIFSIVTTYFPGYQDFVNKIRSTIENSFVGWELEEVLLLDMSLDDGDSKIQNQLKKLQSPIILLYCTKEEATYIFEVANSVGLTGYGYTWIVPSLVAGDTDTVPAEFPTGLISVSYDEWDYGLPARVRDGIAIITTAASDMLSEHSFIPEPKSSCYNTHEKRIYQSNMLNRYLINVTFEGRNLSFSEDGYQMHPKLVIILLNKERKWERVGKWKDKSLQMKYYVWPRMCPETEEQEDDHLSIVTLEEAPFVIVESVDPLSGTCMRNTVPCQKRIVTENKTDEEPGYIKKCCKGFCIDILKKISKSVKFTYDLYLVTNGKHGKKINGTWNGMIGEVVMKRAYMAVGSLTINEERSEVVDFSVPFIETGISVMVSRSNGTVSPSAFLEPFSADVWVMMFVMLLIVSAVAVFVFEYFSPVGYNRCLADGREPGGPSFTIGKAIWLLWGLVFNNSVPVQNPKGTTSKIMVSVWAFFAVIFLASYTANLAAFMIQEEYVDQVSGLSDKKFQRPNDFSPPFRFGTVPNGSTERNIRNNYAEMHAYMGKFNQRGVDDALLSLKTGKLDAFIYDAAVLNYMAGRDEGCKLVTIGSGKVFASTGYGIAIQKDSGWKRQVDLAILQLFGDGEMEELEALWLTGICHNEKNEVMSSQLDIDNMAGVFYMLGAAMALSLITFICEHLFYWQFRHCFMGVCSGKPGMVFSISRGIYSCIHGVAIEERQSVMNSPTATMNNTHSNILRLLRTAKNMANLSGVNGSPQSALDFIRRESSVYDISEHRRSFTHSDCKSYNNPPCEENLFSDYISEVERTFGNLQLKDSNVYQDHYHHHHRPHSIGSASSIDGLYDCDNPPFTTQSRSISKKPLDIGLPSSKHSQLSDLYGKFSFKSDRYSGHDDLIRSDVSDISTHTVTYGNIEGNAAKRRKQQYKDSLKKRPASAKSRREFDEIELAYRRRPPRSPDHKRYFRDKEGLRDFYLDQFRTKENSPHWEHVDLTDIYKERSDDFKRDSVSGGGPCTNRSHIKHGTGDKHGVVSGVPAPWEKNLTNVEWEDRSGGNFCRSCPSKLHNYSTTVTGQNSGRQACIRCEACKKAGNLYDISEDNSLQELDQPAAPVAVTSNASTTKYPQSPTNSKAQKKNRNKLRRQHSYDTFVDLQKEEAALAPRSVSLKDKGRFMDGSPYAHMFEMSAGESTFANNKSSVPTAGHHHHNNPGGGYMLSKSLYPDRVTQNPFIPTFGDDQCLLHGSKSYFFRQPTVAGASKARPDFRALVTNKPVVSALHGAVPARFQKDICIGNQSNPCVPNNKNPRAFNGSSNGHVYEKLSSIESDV

This assay addresses cloned human NR1/NR2B ion channels (Homo sapiens (Human), UniProt Q05586+Q13224). The assay can be described thus: HNR2BC: effects of test articles on cloned human NR1/NR2B ion channels expressed in mammalian cells (FLIPR calcium flux). The class given is cell-based. The settings on record: cloned human NR1/NR2B ion channels, Table 5. A digest of the protocol: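 In a stable Tet-On-induced cell line expressing human GluN1/GluN2B, Calcium 5-loaded cells were preincubated 5 min with compound, then stimulated 5 min with glutamate at ~EC80 plus 10 μM glycine, in pH 7.4 HEPES buffer. FLIPR calcium fluorescence was normalized to control wells.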
Background: Calcium flux is commonly read through the fluorescence of an indicator in the cells.
Take `CN(C)C(=O)Cn1cc(Cl)c2ncc(-c3cccc(F)c3)cc21` [Example 531, 2-[3-Chloro-6-(3-fluorophenyl)pyrrolo[3,2-b]pyridin-1-yl]-N,N-dimethyl-acetamide]: the IC50 is 50.1 nM.

Regarding `O=C(Cn1cc(Cl)c2ncc(-c3cc(F)cc(F)c3)cc21)N1CCC1` [Example 532, 1-(Azetidin-1-yl)-2-[3-chloro-6-(3,5-difluorophenyl)pyrrolo[3,2-b]pyridin-1-yl]ethanone], the IC50 was 50.1 nM.

For `CCc1cccc(-c2cnc3c(Cl)cn(CC(=O)N4CCC4)c3c2)c1` [Example 533, 1-(Azetidin-1-yl)-2-[3-chloro-6-(3-ethylphenyl)pyrrolo[3,2-b]pyridin-1-yl]ethanone], the IC50 was 50.1 nM.

For the compound `CN(C)C(=O)Cn1cc(Cl)c2ncc(-c3cccc(Cl)c3)cc21` [Example 534, 2-[3-Chloro-6-(3-chlorophenyl)pyrrolo[3,2-b]pyridin-1-yl]-N,N-dimethyl-acetamide], the IC50 is 31.6 nM.

As to `O=C(Cn1cc(Cl)c2ncc(-c3ccccc3F)cc21)N1CC(F)C1` [Example 535, 2-[3-Chloro-6-(2-fluorophenyl)pyrrolo[3,2-b]pyridin-1-yl]-1-(3-fluoroazetidin-1-yl)ethanone], the IC50 is 200 nM.

For the compound `Cc1cccc(-c2cnc3c(Cl)cn(CC(=O)N4CC(F)C4)c3c2)c1F` [Example 536, 2-[3-Chloro-6-(2-fluoro-3-methyl-phenyl)pyrrolo[3,2-b]pyridin-1-yl]-1-(3-fluoroazetidin-1-yl)ethanone], the IC50 was 25.1 nM.

For `O=C(Cn1cc(Cl)c2ncc(-c3cc(F)cc(F)c3)cc21)N1CC(F)C1` [Example 537, 2-[3-Chloro-6-(3,5-difluorophenyl)pyrrolo[3,2-b]pyridin-1-yl]-1-(3-fluoroazetidin-1-yl)ethanone], the IC50 was 12.6 nM.

Take `O=C(Cn1cc(Cl)c2ncc(-c3cccc(C(F)(F)F)c3F)cc21)N1CC(F)C1` [Example 538, 2-[3-Chloro-6-[2-fluoro-3-(trifluoromethyl)phenyl]pyrrolo[3,2-b]pyridin-1-yl]-1-(3-fluoroazetidin-1-yl)ethanone]: the IC50 was 79.4 nM.

As to `Cc1c(F)ccc(-c2cnc3c(Cl)cn(CC(=O)N4CC(F)C4)c3c2)c1F` [Example 539, 2-[3-Chloro-6-(2,4-difluoro-3-methyl-phenyl)pyrrolo[3,2-b]pyridin-1-yl]-1-(3-fluoroazetidin-1-yl)ethanone], the IC50 was 25.1 nM.

With `O=C(Cn1cc(Cl)c2ncc(-c3ccc(F)c(Cl)c3)cc21)N1CC(F)C1` [Example 540, 2-[3-Chloro-6-(3-chloro-4-fluoro-phenyl)pyrrolo[3,2-b]pyridin-1-yl]-1-(3-fluoroazetidin-1-yl)ethanone], the IC50 was 25.1 nM.

Turning to `O=C(Cn1cc(Cl)c2ncc(-c3cccc(Cl)c3F)cc21)N1CC(F)C1` [Example 541, 2-[3-Chloro-6-(3-chloro-2-fluoro-phenyl)pyrrolo[3,2-b]pyridin-1-yl]-1-(3-fluoroazetidin-1-yl)ethanone], the IC50 was 39.8 nM.

`CCc1cccc(-c2cnc3c(Cl)cn(CC(=O)N4CC(F)C4)c3c2)c1` [Example 542, 2-[3-Chloro-6-(3-ethylphenyl)pyrrolo[3,2-b]pyridin-1-yl]-1-(3-fluoroazetidin-1-yl)ethanone]: the IC50 was 31.6 nM.

Turning to `O=C(Cn1cc(Cl)c2ncc(-c3cccc(F)c3)cc21)N1CC(F)C1` [Example 543, 2-[3-Chloro-6-(3-fluorophenyl)pyrrolo[3,2-b]pyridin-1-yl]-1-(3-fluoroazetidin-1-yl)ethanone], the IC50 is 20 nM.

On to `CN(C)C(=O)Cn1cc(Cl)c2ncc(-c3cccc(Cl)c3F)cc21` [Example 544, 2-[3-Chloro-6-(3-chloro-2-fluoro-phenyl)pyrrolo[3,2-b]pyridin-1-yl]-N,N-dimethyl-acetamide], for which the IC50 was 31.6 nM.

As for `O=C(Cn1cc(Cl)c2ncc(-c3cccc(Cl)c3)cc21)N1CC(F)C1` [Example 545, 2-[3-Chloro-6-(3-chlorophenyl)pyrrolo[3,2-b]pyridin-1-yl]-1-(3-fluoroazetidin-1-yl)ethanone], the IC50 was 12.6 nM.

Consider `O=C(Cn1cc(Cl)c2ncc(-c3cccc(C(F)F)c3)cc21)N1CC(F)C1` [Example 546, 2-[3-Chloro-6-[3-(difluoromethyl)phenyl]pyrrolo[3,2-b]pyridin-1-yl]-1-(3-fluoroazetidin-1-yl)ethanone], for which the IC50 was 39.8 nM.

Turning to `Cc1cccc(-c2cnc3c(F)c(C)n(CC(=O)N4CCC4)c3c2)c1` [Example 547, 1-(Azetidin-1-yl)-2-[3-fluoro-2-methyl-6-(m-tolyl)pyrrolo[3,2-b]pyridin-1-yl]ethanone], the IC50 was 398 nM.

`Cc1cn(CC(=O)N2CCC2)c2cc(-c3ccc(F)c(F)c3)cnc12` [Example 548, 1-(Azetidin-1-yl)-2-[6-(3,4-difluorophenyl)-3-methyl-pyrrolo[3,2-b]pyridin-1-yl]ethanone]: the half-maximal inhibitory concentration (IC50) is 79.4 nM.

On to `Cc1cn(CC(=O)N(C)C)c2cc(-c3ccc(F)c(F)c3)cnc12` [Example 549, 2-[6-(3,4-Difluorophenyl)-3-methyl-pyrrolo[3,2-b]pyridin-1-yl]-N,N-dimethyl-acetamide], for which the IC50 was 79.4 nM.

Consider `Cc1cccc(-c2cnc3c(C)cn(CC(=O)N4CC(F)C4)c3c2)c1` [Example 550, 1-(3-Fluoroazetidin-1-yl)-2-[3-methyl-6-(m-tolyl)pyrrolo[3,2-b]pyridin-1-yl]ethanone], for which the IC50 is 126 nM.

Regarding `Cc1cn(CC(=O)N2CC(F)C2)c2cc(-c3ccc(F)c(F)c3)cnc12` [Example 551, 2-[6-(3,4-Difluorophenyl)-3-methyl-pyrrolo[3,2-b]pyridin-1-yl]-1-(3-fluoroazetidin-1-yl)ethanone], the IC50 was 63.1 nM.

Consider `Cc1cn(CC(=O)N2CCC2)c2cc(-c3cccc(C(F)(F)F)c3)cnc12` [Example 552, 1-(Azetidin-1-yl)-2-[3-methyl-6-[3-(trifluoromethyl)phenyl]pyrrolo[3,2-b]pyridin-1-yl]ethanone], for which the IC50 was 79.4 nM.

`Cc1cn(CC(=O)N(C)C)c2cc(-c3cccc(C(F)(F)F)c3)cnc12` [Example 553, N,N-Dimethyl-2-[3-methyl-6-[3-(trifluoromethyl)phenyl]pyrrolo[3,2-b]pyridin-1-yl]acetamide]: the IC50 was 79.4 nM.

For `Cc1cn(CC(=O)N2CC(F)C2)c2cc(-c3cccc(C(F)(F)F)c3)cnc12` [Example 554, 1-(3-Fluoroazetidin-1-yl)-2-[3-methyl-6-[3-(trifluoromethyl)phenyl]pyrrolo[3,2-b]pyridin-1-yl]ethanone], the IC50 was 200 nM.

As to `Cc1cn(CC(=O)N(C)C)c2cc(-c3cc(F)cc(F)c3)cnc12` [Example 555, 2-[6-(3,5-Difluorophenyl)-3-methyl-pyrrolo[3,2-b]pyridin-1-yl]-N,N-dimethyl-acetamide], the IC50 is 63.1 nM.

As for `Cc1cn(CC(=O)N2CCC2)c2cc(-c3cc(F)cc(F)c3)cnc12` [Example 556, 1-(Azetidin-1-yl)-2-[6-(3,5-difluorophenyl)-3-methyl-pyrrolo[3,2-b]pyridin-1-yl]ethanone], the half-maximal inhibitory concentration (IC50) is 398 nM.

As for `CCN(C)C(=O)Cn1cc(C)c2ncc(-c3cc(F)cc(F)c3)cc21` [Example 557, 2-[6-(3,5-Difluorophenyl)-3-methyl-pyrrolo[3,2-b]pyridin-1-yl]-N-ethyl-N-methyl-acetamide], the concentration for half-maximal inhibition (IC50) was 126 nM.

For `Cc1cn(CC(=O)N(C)C)c2cc(-c3ccc(F)cc3)cnc12` [Example 558, 2-[6-(4-Fluorophenyl)-3-methyl-pyrrolo[3,2-b]pyridin-1-yl]-N,N-dimethyl-acetamide], the IC50 was 79.4 nM.

As for `CCN(C)C(=O)Cn1cc(C)c2ncc(-c3ccc(F)cc3)cc21` [Example 559, N-Ethyl-2-[6-(4-fluorophenyl)-3-methyl-pyrrolo[3,2-b]pyridin-1-yl]-N-methyl-acetamide], the IC50 was 158 nM.

As to `CCN(C)C(=O)Cn1cc(C)c2ncc(-c3cccc(C)c3F)cc21` [Example 560, N-Ethyl-2-[6-(2-fluoro-3-methyl-phenyl)-3-methyl-pyrrolo[3,2-b]pyridin-1-yl]-N-methyl-acetamide], the IC50 was 794 nM.

In the case of `Cc1cccc(-c2cnc3c(C)cn(CC(=O)N4CCC4)c3c2)c1F` [Example 561, 1-(Azetidin-1-yl)-2-[6-(2-fluoro-3-methyl-phenyl)-3-methyl-pyrrolo[3,2-b]pyridin-1-yl]ethanone], the IC50 was 398 nM.

As to `Cc1cccc(-c2cnc3c(C)cn(CC(=O)N(C)C)c3c2)c1F` [Example 562, 2-[6-(2-Fluoro-3-methyl-phenyl)-3-methyl-pyrrolo[3,2-b]pyridin-1-yl]-N,N-dimethyl-acetamide], the IC50 is 50.1 nM.

As for `Cc1cccc(-c2cnc3c(C)cn(CC(=O)N4CC(F)C4)c3c2)c1F` [Example 563, 1-(3-Fluoroazetidin-1-yl)-2-[6-(2-fluoro-3-methyl-phenyl)-3-methyl-pyrrolo[3,2-b]pyridin-1-yl]ethanone], the IC50 is 39.8 nM.

For the compound `Cc1cccc(-c2cnc3c(C)cn(CC(=O)N4CC(F)(F)C4)c3c2)c1F` [Example 564, 1-(3,3-Difluoroazetidin-1-yl)-2-[6-(2-fluoro-3-methyl-phenyl)-3-methyl-pyrrolo[3,2-b]pyridin-1-yl]ethanone], the IC50 is 100 nM.

Take `Cc1cccc(-c2cnc3c(C)cn(CC(=O)N4CCCC4)c3c2)c1F` [Example 565, 2-[6-(2-Fluoro-3-methyl-phenyl)-3-methyl-pyrrolo[3,2-b]pyridin-1-yl]-1-pyrrolidin-1-yl-ethanone]: the concentration for half-maximal inhibition (IC50) is 126 nM.

Regarding `Cc1cc(-c2cnc3c(C)cn(CC(=O)N(C)C)c3c2)ccc1F` [Example 566, 2-[6-(4-Fluoro-3-methyl-phenyl)-3-methyl-pyrrolo[3,2-b]pyridin-1-yl]-N,N-dimethyl-acetamide], the IC50 was 50.1 nM.

`Cc1cn(CC(=O)N2CCCC2)c2cc(-c3cccc(C(F)(F)F)c3)cnc12` [Example 567, 2-[3-Methyl-6-[3-(trifluoromethyl)phenyl]pyrrolo[3,2-b]pyridin-1-yl]-1-pyrrolidin-1-yl-ethanone]: the IC50 is 200 nM.

As a reminder, the IC50 is the concentration at which inhibition is half-maximal.
